Experimental data published in patent publication US20210032257A1, “(E)-1-(4-(DIMETHYLAMINO)BUT-2-ENOYL)PYRROLIDIN-3-YL 4-((3-ISOPROPYL-5-METHYLPYRAZOLO[1,5-A]PYRIMIDIN-7-YL)AMINO)PIPERIDINE-1-CARBOXYLATE FOR INHIBITING CDK7” (Eli Lilly and Company, priority 2017, published 2021).
pIC50: −log10 of the molar value.

Experiments:
Assay in all cases: Biomarker study proliferation (CellTiter-Glo)
Format in all cases: cell-based
[1] = test system: EBC1
Summary of the method: (§1)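 Cell lines were chosen by ARID1A, KMT2C, KMT2D and/or RB1 status from COSMIC and cBioportal. Viability after 7 days of treatment was measured by CellTiter-Glo luminescence, with 5 μM staurosporine as the full-inhibition control.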

[2] = test system: KYSE520
Summary of the method: as §1

[3] = test system: HS294T
Summary of the method: as §1

[4] = test system: HEYA8
Summary of the method: as §1

[5] = test system: HLF
Summary of the method: as §1

[6] = test system: SNU449
Summary of the method: as §1

[7] = test system: PATU8988T
Summary of the method: as §1

[8] = test system: KARPAS299
Summary of the method: as §1

[9] = test system: HCC44
Summary of the method: as §1

[10] = test system: MKN1
Summary of the method: as §1

[11] = test system: U87MG
Summary of the method: as §1

[12] = test system: CT26
Summary of the method: as §1

[13] = test system: SNU1
Summary of the method: as §1

[14] = test system: SNU308
Summary of the method: as §1

[15] = test system: DU145
Summary of the method: as §1

[16] = test system: MHCC97L
Summary of the method: as §1

[17] = test system: NIHOVCAR3
Summary of the method: as §1

[18] = test system: LS411N
Summary of the method: as §1

[19] = test system: A375
Summary of the method: as §1

[20] = 168 h, read-out: Anti-proliferation effect IC50

`Cc1cc(NC2CCN(C(=O)O[C@H]3CCN(C(=O)/C=C/CN(C)C)C3)CC2)n2ncc(C(C)C)c2n1` [Example 1, [(3S)-1-[(E)-4-(dimethylamino)but-2-enoyl]pyrrolidin-3-yl] 4-[(3-isopropyl-5-methyl-pyrazolo[1,5-a]pyrimidin-7-yl)amino]piperidine-1-carboxylate] was tested, and the “Anti-proliferation effect % Inh.” value ([1]; EBC1, LUNG, 7 days) was 83%, the “Anti-proliferation effect Outcome” value ([1]; EBC1, LUNG, 7 days) was “Cytotoxic (cytotoxic (IC50<1 μM and % inhibition ≥70%))” and the pIC50 ([1]; Homo sapiens, EBC-1, 168 h, read-out: Anti-proliferation effect IC50) was 7.33. The pIC50 ([2]; Homo sapiens, KYSE-520, 168 h, read-out: Anti-proliferation effect IC50) was less than 5.00, the “Anti-proliferation effect % Inh.” value ([2]; KYSE520, OESOPHAGUS, 7 days) was 50% and the “Anti-proliferation effect Outcome” value ([2]; KYSE520, OESOPHAGUS, 7 days) was “Insensitive (insensitive (IC50≥1 μM))”. For the same compound, the “Anti-proliferation effect % Inh.” value ([3]; HS294T, SKIN, 7 days) was 84%, the “Anti-proliferation effect Outcome” value ([3]; HS294T, SKIN, 7 days) was “Cytotoxic (cytotoxic (IC50<1 μM and % inhibition ≥70%))” and the pIC50 ([3]; Homo sapiens, Hs 294T, 168 h, read-out: Anti-proliferation effect IC50) was 7.70. The pIC50 ([4]; HEY A8, 168 h, read-out: Anti-proliferation effect IC50) was 6.95, the “Anti-proliferation effect % Inh.” value ([4]; HEYA8, OVARY, 7 days) was 89% and the “Anti-proliferation effect Outcome” value ([4]; HEYA8, OVARY, 7 days) was “Cytotoxic (cytotoxic (IC50<1 μM and % inhibition ≥70%))”. The pIC50 [5, 20] was 7.77, the “Anti-proliferation effect % Inh.” value ([5]; LIVER, 7 days) was 100% and the “Anti-proliferation effect Outcome” value ([5]; LIVER, 7 days) was “Cytotoxic (cytotoxic (IC50<1 μM and % inhibition ≥70%))”. The pIC50 ([6]; Homo sapiens, SNU-449, 168 h, read-out: Anti-proliferation effect IC50) was 5.82, the “Anti-proliferation effect % Inh.” value ([6]; SNU449, LIVER, 7 days) was 8% and the “Anti-proliferation effect Outcome” value ([6]; SNU449, LIVER, 7 days) was “Insensitive (insensitive (IC50≥1 μM))”. The pIC50 ([7]; Homo sapiens, PaTu 8988t, 168 h, read-out: Anti-proliferation effect IC50) was 6.70, the “Anti-proliferation effect % Inh.” value ([7]; PATU8988T, PANCREAS, 7 days) was 55% and the “Anti-proliferation effect Outcome” value ([7]; PATU8988T, PANCREAS, 7 days) was “Cytostatic (cytostatic (IC50<1 μM and % inhibition <70%))”. The pIC50 ([8]; Homo sapiens, KARPAS-299, 168 h, read-out: Anti-proliferation effect IC50) was 7.16, the “Anti-proliferation effect % Inh.” value ([8]; KARPAS299, BLOOD, 7 days) was 78% and the “Anti-proliferation effect Outcome” value ([8]; KARPAS299, BLOOD, 7 days) was “Cytotoxic (cytotoxic (IC50<1 μM and % inhibition ≥70%))”. The “Anti-proliferation effect % Inh.” value ([9]; HCC44, LUNG, 7 days) was 48%, the “Anti-proliferation effect Outcome” value ([9]; HCC44, LUNG, 7 days) was “Cytostatic (cytostatic (IC50<1 μM and % inhibition <70%))” and the pIC50 ([9]; Homo sapiens, HCC44, 168 h, read-out: Anti-proliferation effect IC50) was 6.88. For the same compound, the pIC50 ([10]; Homo sapiens, MKN-1, 168 h, read-out: Anti-proliferation effect IC50) was 7.64, the “Anti-proliferation effect % Inh.” value ([10]; MKN1, STOMACH, 7 days) was 80% and the “Anti-proliferation effect Outcome” value ([10]; MKN1, STOMACH, 7 days) was “Cytotoxic (cytotoxic (IC50<1 μM and % inhibition ≥70%))”. For the same compound, the pIC50 ([11]; Homo sapiens, U-87 MG, 168 h, read-out: Anti-proliferation effect IC50) was 5.13, the “Anti-proliferation effect % Inh.” value ([11]; U87MG, CNS, 7 days) was −5% and the “Anti-proliferation effect Outcome” value ([11]; U87MG, CNS, 7 days) was “Insensitive (insensitive (IC50≥1 μM))”. The “Anti-proliferation effect % Inh.” value ([12]; CT26, INTESTINE, 7 days) was −47%, the “Anti-proliferation effect Outcome” value ([12]; CT26, INTESTINE, 7 days) was “Insensitive (insensitive (IC50≥1 μM))” and the pIC50 ([12]; Mus musculus, CT26, 168 h, read-out: Anti-proliferation effect IC50) was less than 5.00. The pIC50 ([13]; Homo sapiens, SNU1, 168 h, read-out: Anti-proliferation effect IC50) was 6.98, the “Anti-proliferation effect % Inh.” value ([13]; SNU1, STOMACH, 7 days) was 68% and the “Anti-proliferation effect Outcome” value ([13]; SNU1, STOMACH, 7 days) was “Cytostatic (cytostatic (IC50<1 μM and % inhibition <70%))”. The pIC50 [14, 20] was 6.74, the “Anti-proliferation effect % Inh.” value ([14]; SNU308, BILIARY, 7 days) was 61% and the “Anti-proliferation effect Outcome” value ([14]; SNU308, BILIARY, 7 days) was “Cytostatic (cytostatic (IC50<1 μM and % inhibition <70%))”. The “Anti-proliferation effect % Inh.” value ([15]; DU145, PROSTATE, 7 days) was 74%, the “Anti-proliferation effect Outcome” value ([15]; DU145, PROSTATE, 7 days) was “Cytotoxic (cytotoxic (IC50<1 μM and % inhibition ≥70%))” and the pIC50 ([15]; Homo sapiens, DU-145, 168 h, read-out: Anti-proliferation effect IC50) was 7.44. The pIC50 [16, 20] was 6.28, the “Anti-proliferation effect % Inh.” value ([16]; LIVER, 7 days) was 45% and the “Anti-proliferation effect Outcome” value ([16]; LIVER, 7 days) was “Cytostatic (cytostatic (IC50<1 μM and % inhibition <70%))”. For the same compound, the pIC50 ([17]; Homo sapiens, OVCAR-3, 168 h, read-out: Anti-proliferation effect IC50) was 7.40, the “Anti-proliferation effect % Inh.” value ([17]; NIHOVCAR3, OVARY, 7 days) was 96% and the “Anti-proliferation effect Outcome” value ([17]; NIHOVCAR3, OVARY, 7 days) was “Cytotoxic (cytotoxic (IC50<1 μM and % inhibition ≥70%))”. The pIC50 ([18]; Homo sapiens, LS-411N, 168 h, read-out: Anti-proliferation effect IC50) was 6.00, the “Anti-proliferation effect % Inh.” value ([18]; LS411N, INTESTINE, 7 days) was 45% and the “Anti-proliferation effect Outcome” value ([18]; LS411N, INTESTINE, 7 days) was “Insensitive (insensitive (IC50≥1 μM))”. For the same compound, the “Anti-proliferation effect % Inh.” value ([19]; A375, SKIN, 7 days) was 86%, the “Anti-proliferation effect Outcome” value ([19]; A375, SKIN, 7 days) was “Cytotoxic (cytotoxic (IC50<1 μM and % inhibition ≥70%))” and the pIC50 ([19]; Homo sapiens, A-375, 168 h, read-out: Anti-proliferation effect IC50) was 7.26.
